Experimental findings from US20140309171A1, “MARKER FOR BLOOD COAGULATION” (Universite Catholique De Louvain, priority 2011, published 2014) are described below.

For assay [1], the system named is Ser79 acetyl-CoA carboxylase (ACC) phosphorylation in human platelets. Kind of assay: Western blot of phosphorylated (Ser79) ACC in human platelets. In kind it is cell-based. As to conditions: isolated washed human platelets treated with the agonist. As to the method: (§1) Washed human platelets (used in in vitro studies). Platelets were obtained from adult healthy volunteers in accordance with the Ethics Commission of our institution (Commission d'Ethique Biomédicale Hospitalo-Facultaire, Université catholique de Louvain). Whole blood was collected with butterfly needle 21G into Sodium Citrate 1:10 solution (S-monovette). Platelet-rich plasma (PRP) was obtained by 15 min centrifugation at 330 g. The platelets pellet was then washed in Tyrode modified buffer (135 mM NaCl, 12 mM NaHCO3, 1 mM Sodium Citrate, 2.9 mM KCl, 0.3 mM Na2HPO4, 1 mM MgCl2, 5 mM D-glucose, 10 mM Hepes, 0.35% bovine serum albumin (BSA), pH 7.4 at 37° C.) and resuspended to a density of 2.5 10^5 platelets/μl for the measurement of intracellular Ca^2+ or platelet aggregation. For Western Blot analysis, PRP with eptifibatide 4 μg/ml (Integriline, GlaxoSmithKline) and ectonucleotidase apyrase (grade I) 0.5 U/ml was layered over a density barrier of iodixanol (Optiprep®) that allowed the erythrocytes and leucocytes to pellet during centrifugation at 350 g for 15 min. The platelets, because of their small size, sediment much more slowly. After centrifugation at 800 g for 10 min, the resulting pellet was resuspended to a density of 2·10^5 platelets/μl in Tyrode modified buffer before treatment and lysis of samples.
(§2) Proteins were separated as described (Miranda et al. 2010. J Clin Invest 103(6): 879-887). The membranes were probed with the following antibodies: α1/α2 AMPK (Kinasource), phospho-ACC (S79) (1:1000; Cell Signalling), phospho-MLC (S19) (1:10000; Sigma-Aldrich), phospho-VASP (T278) (1:1000; ECM Bioscience), cofilin (Cell Signalling), phospho-cofilin (Ser 3) (Cell Signalling). Bound antibodies were detected by enhanced chemiluminescence (Thermofisher). For each gel, control of loading was realized by immunoblotting using an anti-β-actin (1:10000; Santa Cruz Biotechnology), anti-gelsolin (Santa Cruz Biotechnology) or anti-GAPDH (1:1000; Cell Signalling) antibody after the membranes were stripped. Band intensities were quantified by scanning and processing image intensities with the program ImageJ (1.33 for Mac OS X). The quantification of immunoblots presented in results was obtained after normalization using the internal loading control.
Platelets were isolated from human blood samples as described in the experimental procedures. The isolated platelets were treated with increasing doses of thrombin (0.01, 0.03, 0.1, 0.3 and 1 U/ml), the thromboxane A2 (TXA2) receptor agonist U46619 (0.1, 0.3, 1, 3 and 10 μM), collagen (0.5, 1, 2.5, 5 and 10 μg/ml) or ADP (2.5, 5, 10, 25 nd 50 μM) for 1 min. Following treatment, the platelets were lysed and subjected to Western blotting for determining phosphorylation of Ser79 of ACC.

In assay [2] the test system is cofilin phosphorylation in platelets from WT mice. Kind of assay: Western blot of cofilin phosphorylation in murine platelets. Type of assay: cell-based, mouse. Particulars: thrombin 0.05 U/ml. As to the method:
(§3) Eight- to 12-week-old mice were bled under sodium pentobarbital anesthesia (25-35 mg·kg^−1) from the retroorbital plexus. Mouse blood was collected in a 1/10 ACD solution (12 mM citric acid, 15 mM sodium citrate, 25 mM glucose) with ectonucleotidase apyrase (grade I) 0.5 U/ml. PRP was obtained by centrifugation at 800 g for 5 s followed by 5 min at 150 g. PRPs from three animals were pooled. Platelets were washed in Tyrode modified buffer and resuspended to a density of 2.5 10^5 platelets/μl for the measurement of platelet aggregation and for Western Blot analysis. At least three independent experiments were performed on PRP from different pools.
as §2, with “For each gel, control of loading was realized by immunoblotting using an anti-β-actin (1:10000; Santa Cruz Biotechnology), anti-gelsolin (Santa Cruz Biotechnology) or anti-GAPDH (1:1000; Cell Signalling) antibody after the membranes were stripped.” left out
(A western blot detects proteins with antibodies after separation by electrophoresis.)

In a further assay the test system is washed human platelets. Kind of assay: Platelet aggregation, light transmission (Chrono-Log Aggregometer). Type of assay: cell-based. As to conditions: 0.025 U/ml thrombin alone. How it is done:
as §1
Light transmission during thrombin-induced platelet aggregation in human and murine PRP was recorded with a Chrono-Log Aggregometer at 37° C., under stirring condition (1200 crpm). The platelet suspension was incubated with dimethyl sulfoxide (DMSO, vehicle) or STO-609 (10 μM, Tocris) for 2 min before the addition of the thrombin (+/−0.03 U/ml). CaCl2 2 mM was added prior to the agonists.
To evaluate the potential implication of CaMKKβ in platelet aggregation, washed human platelets were pre-incubated for 2 min with 10 μM STO-609, prior to treatment with thrombin or ADP.

Assay [3] deals with cofilin Ser3 phosphorylation. In words: Western blot of cofilin Ser3 phosphorylation in human platelets. Type of assay: cell-based. Particulars: human platelets, 0.1 U/ml thrombin, maximal at 1 min, persisted for 10 min. How it is done: (§4) Washed human platelets (used in in vitro studies). Platelets were obtained from adult healthy volunteers in accordance with the Ethics Commission of our institution (Commission d'Ethique Biomédicale Hospitalo-Facultaire, Université catholique de Louvain). Whole blood was collected with butterfly needle 21G into Sodium Citrate 1:10 solution (S-monovette). Platelet-rich plasma (PRP) was obtained by 15 min centrifugation at 330 g. The platelets pellet was then washed in Tyrode modified buffer (135 mM NaCl, 12 mM NaHCO3, 1 mM Sodium Citrate, 2.9 mM KCl, 0.3 mM Na2HPO4, 1 mM MgCl2, 5 mM D-glucose, 10 mM Hepes, 0.35% bovine serum albumin (BSA), pH 7.4 at 37° C.) and resuspended to a density of 2.5 10^5 platelets/μl for the measurement of intracellular Ca^2+ or platelet aggregation. […]
(§5) Proteins were separated as described (Miranda et al. 2010. J Clin Invest 103(6): 879-887). […] Bound antibodies were detected by enhanced chemiluminescence (Thermofisher). […] Band intensities were quantified by scanning and processing image intensities with the program ImageJ (1.33 for Mac OS X). The quantification of immunoblots presented in results was obtained after normalization using the internal loading control.

Assay [4] deals with VASP Thr 278 phosphorylation. Kind of assay: Western blot of VASP Thr278 phosphorylation in human platelets. Type of assay: cell-based. Particulars: human platelets, 0.1 U/ml thrombin. As to the method: as §4, §5
Assay [5] deals with myosin light chain (MLC) Ser 19 phosphorylation. Kind of assay: Western blot of MLC Ser19 phosphorylation in human platelets. Type of assay: cell-based. As to conditions: human platelets, 0.1 U/ml thrombin, significant after 2 min, persisted till 10 min. How it is done:
as §4, §5

A further assay relates to AMPK. In words: AMPK enzyme assay after immunoprecipitation from platelet extracts. As to conditions: human platelets treated with 0.1 U/ml thrombin. In kind it is cell-based. How it is done: AMPK was immunoprecipitated with 10 μg of α1-AMPK or α2-AMPK antibodies (Kinasource) from 50 μg of platelet extracts and assayed in a final volume of 50 μl Hepes 50 mM, pH 7.2, with 0.2 mM SAMS peptide (Substrate for AMP-activated Protein Kinase, Tocris Bioscience), 0.2 mM adenosine 5′-monophosphate (AMP), and 0.1 mM [^32P]MgATP (specific radioactivity: 1000 cpm/pmol; Perkin Elmer) at 30° C. Aliquots (10 μl) were removed and spotted onto Whatman P81 papers for measurement of ^32P incorporation. One unit of protein kinase activity corresponds to the incorporation of 1 nmol of phosphate into the appropriate peptide substrate per min under the assay conditions.
AMPK was immunoprecipitated with anti-α1- and anti-α2-AMPK antibodies prior to AMPK assay. The AMPK catalytic α1-subunit isoform accounted for the total AMPK activity in platelets (FIG. 1B), confirming the immunoblotting results.

Assay [6] concerns MLC phosphorylation in platelets from WT mice. In words: Western blot of MLC phosphorylation in murine platelets. In kind it is cell-based, mouse. Particulars: thrombin 0.05 U/ml. How it is done:
as §3
as §2, with “For each gel, control of loading was realized by immunoblotting using an anti-β-actin (1:10000; Santa Cruz Biotechnology), anti-gelsolin (Santa Cruz Biotechnology) or anti-GAPDH (1:1000; Cell Signalling) antibody after the membranes were stripped.” left out

For assay [7], the system named is VASP phosphorylation in platelets from WT mice. In words: Western blot of VASP phosphorylation in murine platelets. In kind it is cell-based, mouse. Particulars: thrombin 0.05 U/ml. How it is done:
as §3
as §2, with “For each gel, control of loading was realized by immunoblotting using an anti-β-actin (1:10000; Santa Cruz Biotechnology), anti-gelsolin (Santa Cruz Biotechnology) or anti-GAPDH (1:1000; Cell Signalling) antibody after the membranes were stripped.” left out

Assay [8] has as its system blood coagulation. Kind of assay: Thrombin time (TT) in cardiac surgery patients. Type of assay: in vivo, human. As to the method: (§6) A blood sample was drawn during CPB. […] ACT was measured at the bedside of the patients: a sample of blood was drawn, transferred into an appropriate test vial and the clotting time was measured. The second sample was taken 4 h after surgery and the coagulation was assessed in the same time (activated partial thromboplastin time, apTT; thrombin time, TT). Thrombin time (Thromboclotin™, Siemens, Marburg, Germany) and activated partial thromboplastin time (Platelin L; bioMerieux, France) were measured in a tube containing 0.129 M of trisodium citrate and determined using a coagulation device (MDA II coagulation analyzeer; bioMérieux). After surgery, a chest tube was inserted and a closed chest drainage system was attached to promote drainage of air and fluid. Bleeding was evaluated by the amount of blood collected in the chest tube of drainage over a period of 6 h after admission in intensive cares.

Assay [9] concerns blood coagulation. In words: Activated partial thromboplastin time (aPTT) in cardiac surgery patients. Type of assay: in vivo, human. How it is done: as §6
Assay [10] is described as follows: Post-operative bleeding (chest tube drainage) in cardiac surgery patients. In kind it is in vivo, human. As to conditions: patient 6, after restoration of coagulation by protamine administration. How it is done: as §6
For assay [11], the system named is blood coagulation. Kind of assay: Activated coagulation time (ACT) in cardiac surgery patients. In kind it is in vivo, human. As to the method:
as §6

Where [12] appears, read: patient 6, after protamine injection.
Where [13] appears, read: n = 29 patients, during surgery, after 47086±17766 UI UFH.
Setting [14] is: patient 1, during surgery, UFH 17000 units.
[15] abbreviates: patient 2, during surgery, UFH 33000 units.
The mark [16] stands for this setting: patient 3, during surgery, UFH 25500 units.
The mark [17] stands for this setting: patient 4, during surgery, UFH 10000 units.
The mark [18] stands for this setting: patient 5, during surgery, UFH 25000 units.
Setting [19] is: patient 6, during surgery, UFH 41000 units.

Entries after “also recorded” stand apart in the source; their conditions may differ.

As for `CCCCC[C@H](O)/C=C/[C@@H]1[C@@H](C/C=C\CCCC(=O)O)[C@H]2CO[C@@H]1C2` [U46619], the “Ser79 ACC phosphorylation induced by platelet agonist” value (“Ser79 ACC phosphorylation induced” for short) in assay [1] was “not observed; also recorded: failed to increase”.

Consider thrombin, for which the “phosphorylation of cofilin induced by agonist” value in [2] was “increase”. Further, the “platelet aggregation, % of aggregation” value with washed human platelets turned out to be 69±3%. In addition, the “cofilin phosphorylation in Ser3 induced by agonist” value in assay [3] is “increase”. Moreover, the “VASP phosphorylation on Thr 278 induced by agonist” value in [4] was “significant increased phosphorylation”. In [5], the “MLC Ser 19 phosphorylation induced by agonist” value was “increase”. In addition, the AMPK activation entry with AMPK is “led to AMPK activation; also recorded: induces AMPK activation”. For the same compound, the “Ser79 ACC phosphorylation induced” value in assay [1] is on record as “increased; also recorded: specifically induced”. In assay [6], the “phosphorylation of MLC induced by agonist” value is “increase”. For the same compound, the “phosphorylation of VASP induced by agonist” value in assay [7] is recorded as “increase”.

On to protamine, for which the TT in the assay on blood coagulation [8] (setting [12]) turned out to be 30 s. Further, in the assay with blood coagulation [9] (setting [12]), the aPTT is given as 27 s. The Bleeding result in assay [10] is on record as “controlled”.

Turning to collagen, in assay [1], the “Ser79 ACC phosphorylation induced” value is reported as “not observed; also recorded: failed to increase”.

As for unfractionated heparin [UFH], the “TT, mean” value with blood coagulation [8] (setting [13]) was greater than 120 s; in the assay on blood coagulation [8] (patients 1-6, during surgery, after 25250±11000 UI UFH), greater than 120 s. For the same compound, the TT with blood coagulation [8] (setting [14]), in the assay on blood coagulation [8] (setting [15]), in the assay on blood coagulation [8] (setting [16]), in the assay on blood coagulation [8] (setting [17]), with blood coagulation [8] (setting [18]) and with blood coagulation [8] (setting [19]) was greater than 120 s each time. The “ACT, mean” value amounted to 568 ± 65 s in the assay on blood coagulation [11] (mean of patients 1-6, during surgery, after 25250±11000 UI UFH) and 594 ± 100 s with blood coagulation [11] (setting [13]). Also, the ACT with blood coagulation [11] (setting [14]) stood at 485 s; in the assay on blood coagulation [11] (setting [15]) it was 523 s; with blood coagulation [11] (setting [16]), 635 s; in the assay with blood coagulation [11] (setting [17]), 498 s; with blood coagulation [11] (setting [18]), 698 s; with blood coagulation [11] (setting [19]) it was 568 s. In addition, the aPTT in the assay with blood coagulation [9] (setting [14]) is recorded as greater than 180 s; in the assay with blood coagulation [9] (patient 2, 4 h after surgery, UFH 33000 units), greater than 180 s; in the assay on blood coagulation [9] (setting [16]), greater than 180 s; in the assay on blood coagulation [9] (setting [17]) it was greater than 180 s; in the assay on blood coagulation [9] (setting [18]), greater than 180 s; with blood coagulation [9] (setting [19]), greater than 180 s.

Turning to `Nc1ncnc2c1ncn2[C@@H]1O[C@H](COP(=O)(O)OP(=O)(O)O)[C@@H](O)[C@H]1O` [ADP, adenosine diphosphate], the “Ser79 ACC phosphorylation induced” value in assay [1] is reported as “not observed; also recorded: not lead to ACC phosphorylation; also recorded: failed to increase”.
